Data published in patent EP1944296A1, “Amorphous phase of a substituted pyrazoline, its preparation and use as medicaments” (Laboratorios del Dr. Esteve S.A., priority 2007, dated 2008).

Biological target: T1, recombinant human cannabinoid 1 receptor (CB1) (Homo sapiens, UniProt P21554)
T1 construct: expressed in transfected cells; membrane preparation
Assay: In vitro determination of antagonism to CB1-receptor, [35S]GTPγS binding assay
Format: biochemical
Conditions: compound 1 µM vs agonist WIN 55,212-2; 100 % = effect of Rimonabant (1 µM)
Description: The reaction is performed in 96-well plates. […] Radioactivity is determined using a Wallac Microbeta Trilux. Each experiment is performed at least in duplicate.
The average of basal [^35S]GTPγS binding is subtracted from all binding data.

T1 sequence (P21554 whole entry): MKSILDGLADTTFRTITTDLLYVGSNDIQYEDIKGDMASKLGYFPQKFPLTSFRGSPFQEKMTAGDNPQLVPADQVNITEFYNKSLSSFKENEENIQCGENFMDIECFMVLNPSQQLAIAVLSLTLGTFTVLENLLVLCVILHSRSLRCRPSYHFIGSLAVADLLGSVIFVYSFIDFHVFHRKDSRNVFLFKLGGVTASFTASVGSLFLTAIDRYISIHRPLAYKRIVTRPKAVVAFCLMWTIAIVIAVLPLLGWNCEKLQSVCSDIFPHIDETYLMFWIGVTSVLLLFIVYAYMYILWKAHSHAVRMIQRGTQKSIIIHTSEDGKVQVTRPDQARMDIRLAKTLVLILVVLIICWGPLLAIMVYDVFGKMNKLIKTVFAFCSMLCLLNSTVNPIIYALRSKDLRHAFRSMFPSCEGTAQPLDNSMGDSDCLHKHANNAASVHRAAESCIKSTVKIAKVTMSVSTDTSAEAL

- Antagonism: 106%
Structure (SMILES): O=C(NN1CCCCC1)C1=NN(c2ccc(Cl)cc2Cl)[C@@H](c2ccc(Cl)cc2)C1 [Example 1, (R)-N-piperidinyl-5-(4-chlorophenyl)-1-(2,4-dichlorophenyl)-4,5-dihydro-1H-pyrazole-3-carboxamide]
